This note sets out measurements from PMC6023086, “Improving the Activity of Trp-Rich Antimicrobial Peptides by Arg/Lys Substitutions and Changing the Length of Cationic Residues” (Biomolecules, 2018).

In brackets after ≈: the same amount, converted by molar mass. Like-named read-outs stand apart in the source and are kept apart here. Where a SMILES comes first, the peptide text is derived from it. Where no end group is shown, it is not given here. [ ]: non-standard residue; d: D form. Orn = NCCC[C@H](N)C(=O)O; Dab = NCC[C@H](N)C(=O)O; Dap = NC[C@H](N)C(=O)O

The test deals with Escherichia coli ATCC 25922. The format is cell-based. The method, then:
The antibacterial activity of the Tritrp-derived peptides and other AMPs was assessed against E. coli ATCC 25922, as a representative of Gram-negative bacteria, incubated in Mueller-Hinton broth media (Table 2). […] Arg-to-Lys mutations were correlated with a decrease in activity for almost all peptides. […] The lack of sensitivity of the activity of the Tritrp3 peptide to the nature of the positively charged residues prompted a more detailed study of the structure-activity relationship. Tritrp7 and Tritrp8 are analogs of Tritrp3 where only a single Pro residue is mutated by Ala. These mutations are known to alter the 3D structure of the peptides when interacting with sodium dodecyl sulfate (SDS) micelles, specifically reducing the helicity of the original Tritrp3 peptide (Table 1).
The antibacterial activity for the peptides in this study against E. coli ATCC 25922 was determined by the broth microdilution method. Briefly, E. coli cells at 5 × 10^5 cfu/mL, obtained from a single colony culture, were incubated in Mueller Hinton broth (MHB) media (Sigma Aldrich, St. Louis, MO, USA) in the presence of two-fold dilution of peptides (0–256 µM) in 96-well polypropylene microtiter plates (Sigma Aldrich, St. Louis, MO, USA). The plates were incubated at 37 °C for 16 h, and the minimal inhibitory concentration was determined after incubation as the minimal peptide concentration at which cell growth was not observed.

The mark [1] stands for this setting: E. coli ATCC 25922, Mueller-Hinton broth, 5 × 10^5 cfu/mL, 37 °C, 16 h, run in triplicate, range of all three experiments.

For `CC(C)C[C@H](NC(=O)[C@H](Cc1ccccc1)NC(=O)[C@@H]1CCCN1C(=O)[C@H](Cc1c[nH]c2ccccc12)NC(=O)[C@H](Cc1c[nH]c2ccccc12)NC(=O)[C@H](Cc1c[nH]c2ccccc12)NC(=O)[C@@H]1CCCN1C(=O)[C@H](Cc1ccccc1)NC(=O)[C@H](CCCN)NC(=O)[C@H](CCCN)NC(=O)[C@@H](N)C(C)C)C(=O)N[C@@H](CCCN)C(=O)N[C@@H](CCCN)C(N)=O` [Tritrp–Orn] (H-V[Orn][Orn]FPWWWPFL[Orn][Orn]-NH2), the MIC (ATCC 25922, 16 h) came to 16 µM (≈ 27.7 µg/mL).
On the same count and under the same terms, with VKKFAWWWPFLKK-NH2 [Tritrp7–Lys] the figure was 32 µM.
The molecule VKKFPWWWAFLKK-NH2 [Tritrp8–Lys] gave a minimal inhibitory concentration (MIC) (ATCC 25922, 16 h) of 4 µM. This MIC is about 8-fold lower than that of the molecule before.
Same read-out and setting: with “GIGRWLHSARRFGRAFVGEIMNS [Magainin2-F5W–Arg]” the figure was 8 µM.
As to “FPVTWKWWKWWKG-NH2 [PuroA–Lys, reference compound]”, under setting [1], the MIC worked out at 8 µM.
In turn, `CC(C)C[C@H](NC(=O)[C@H](Cc1ccccc1)NC(=O)[C@@H]1CCCN1C(=O)[C@H](Cc1c[nH]c2ccccc12)NC(=O)[C@H](Cc1c[nH]c2ccccc12)NC(=O)[C@H](Cc1c[nH]c2ccccc12)NC(=O)[C@@H]1CCCN1C(=O)[C@H](Cc1ccccc1)NC(=O)[C@H](CN)NC(=O)[C@H](CN)NC(=O)[C@@H](N)C(C)C)C(=O)N[C@@H](CN)C(=O)N[C@@H](CN)C(N)=O` [Tritrp–Dap] (H-V[Dap][Dap]FPWWWPFL[Dap][Dap]-NH2) had a minimum inhibitory concentration (MIC) (ATCC 25922, 16 h) of 4 µM (≈ 6.48 µg/mL).
The same measure, in the same setting: with VKKFAWWWAFLKK-NH2 [Tritrp3–Lys] the figure was 2 µM.
Molecule ILPWKWPWWPWKK-NH2 [Indolicidin–Lys] yielded an MIC (ATCC 25922, 16 h) of 16 µM. This MIC is about 8-fold higher than that of the molecule before.
On the same count and under the same terms, in the case of VRRFPWWWAFLRR-NH2 [Tritrp8–Arg] it was 2 to 4 µM; in that of VRRFAWWWPFLRR-NH2 [Tritrp7–Arg], 8 µM.
Same read-out and setting: in the case of VKKFPWWWPFLKK-NH2 [Tritrp–Lys] it was 16 µM; in that of `CC(C)C[C@H](NC(=O)[C@H](Cc1ccccc1)NC(=O)[C@@H]1CCCN1C(=O)[C@H](Cc1c[nH]c2ccccc12)NC(=O)[C@H](Cc1c[nH]c2ccccc12)NC(=O)[C@H](Cc1c[nH]c2ccccc12)NC(=O)[C@@H]1CCCN1C(=O)[C@H](Cc1ccccc1)NC(=O)[C@H](CCNC(=N)N)NC(=O)[C@H](CCNC(=N)N)NC(=O)[C@@H](N)C(C)C)C(=O)N[C@@H](CCNC(=N)N)C(=O)N[C@@H](CCNC(=N)N)C(N)=O` [Tritrp–Agb], 4 µM (≈ 7.38 µg/mL); in that of `CC(C)C[C@H](NC(=O)[C@H](Cc1ccccc1)NC(=O)[C@@H]1CCCN1C(=O)[C@H](Cc1c[nH]c2ccccc12)NC(=O)[C@H](Cc1c[nH]c2ccccc12)NC(=O)[C@H](Cc1c[nH]c2ccccc12)NC(=O)[C@@H]1CCCN1C(=O)[C@H](Cc1ccccc1)NC(=O)[C@H](CCCNC(=N)N)NC(=O)[C@H](CCCNC(=N)N)NC(=O)[C@@H](N)C(C)C)C(=O)N[C@@H](CCCNC(=N)N)C(=O)N[C@@H](CCCNC(=N)N)C(N)=O` [Tritrp–Arg], 2 to 4 µM.
Still for that read-out and setting: with VRRFAWWWAFLRR-NH2 [Tritrp3–Arg] the figure was 2 µM; with `CC[C@H](C)[C@H](N)C(=O)N[C@@H](CC(C)C)C(=O)N1CCC[C@H]1C(=O)N[C@@H](Cc1c[nH]c2ccccc12)C(=O)N[C@@H](CCCCN)C(=O)N[C@@H](Cc1c[nH]c2ccccc12)C(=O)N1CCC[C@H]1C(=O)N[C@@H](Cc1c[nH]c2ccccc12)C(=O)N[C@@H](Cc1c[nH]c2ccccc12)C(=O)N1CCC[C@H]1C(=O)N[C@@H](Cc1c[nH]c2ccccc12)C(=O)N[C@@H](CCCNC(=N)N)C(=O)N[C@@H](CCCNC(=N)N)C(N)=O` [Indolicidin, reference compound], 8 µM (≈ 15.3 µg/mL).
For the setting “ATCC 25922, 16 h”, `CC(C)C[C@H](NC(=O)[C@H](Cc1ccccc1)NC(=O)[C@@H]1CCCN1C(=O)[C@H](Cc1c[nH]c2ccccc12)NC(=O)[C@H](Cc1c[nH]c2ccccc12)NC(=O)[C@H](Cc1c[nH]c2ccccc12)NC(=O)[C@@H]1CCCN1C(=O)[C@H](Cc1ccccc1)NC(=O)[C@H](CCN)NC(=O)[C@H](CCN)NC(=O)[C@@H](N)C(C)C)C(=O)N[C@@H](CCN)C(=O)N[C@@H](CCN)C(N)=O` [Tritrp–Dab] (H-V[Dab][Dab]FPWWWPFL[Dab][Dab]-NH2) gave a minimum inhibitory concentration (MIC) of 4 to 8 µM.
On the same count and under the same terms, with `CC(C)C[C@H](NC(=O)[C@H](Cc1ccccc1)NC(=O)[C@@H]1CCCN1C(=O)[C@H](Cc1c[nH]c2ccccc12)NC(=O)[C@H](Cc1c[nH]c2ccccc12)NC(=O)[C@H](Cc1c[nH]c2ccccc12)NC(=O)[C@@H]1CCCN1C(=O)[C@H](Cc1ccccc1)NC(=O)[C@H](CCCCNC(=N)N)NC(=O)[C@H](CCCCNC(=N)N)NC(=O)[C@@H](N)C(C)C)C(=O)N[C@@H](CCCCNC(=N)N)C(=O)N[C@@H](CCCCNC(=N)N)C(N)=O` [Tritrp–hArg] the figure was 4 µM (≈ 7.83 µg/mL).
In the case of FPVTWRWWRWWRG-NH2 [PuroA–Arg], the minimal inhibitory concentration (MIC) under setting [1] was in the range of 8 to 16 µM.
